The nature of assay [1]: Surface microhardness of fortified dentin specimens after pH cycling. Further details: species or system human. The settings on record: for microhardness, rank among all the groups: in words. On the procedure: (§1) The column was further developed with 150 mL of one of five metal chloride solutions (0.1 mol/L AA2P salts of Mg, Zn, Mn, Sr, and Ba) to obtain a fraction containing new cationic L-ascorbic acid 2 phosphates with Mg, Zn, Mn, Sr, or Ba (FIG. 2). The prepared dentin specimens were randomly divided into six groups according to the solution used. The canal of each section was covered with an adhesive wax at the lower surface of the dentin specimen. Dentin specimens were then irrigated with one of five intervening solutions (AA2P salts of Mg (0.18 mM), Zn (5.3 μM), Mn (2.2×10^-8 M), Sr (1.8 μM), and Ba (1.9 μM)) for five minutes, with the saline solution used as the control group. The root canals were then flushed with 10 mL of distilled water immediately after each treatment to remove excess solution.
(§2) Fortified dentin specimens were subjected to a pH cycling procedure with repeated sequences of de/remineralization. Artificial caries were formed in the dentin specimens by a 1-hour immersion in 2.5 mL of demineralizing solution (1.5 mM CaCl2), 0.9 mM KH2PO4, 50 mM acetate buffer, pH 4.8). All lesions were then immersed in 2.5 mL of remineralizing solution (1.5 mM CaCl2, 0.9 mM KH2PO4, 20 mM HEPES [4-(2-hydroxyethyl)-1-piperazineethanesulfonic acid], pH 7.0) for 23 hours. During each solution change, the specimens were rinsed with deionized water for 10 seconds. The pH cycling process was performed at 37 degrees Celsius for three days.
A Micro Met 5100 durometer microhardness tester was used to measure the hardness of the fortified dentin specimens after exposure to a caries inducing environment. Each dentin specimen was further divided into two sections. Three separate indentations were made in each section at depths of 100 μm and 500 μm from the pulp-dentin interface using a 300-g load with a dwell time of 20 seconds for each measurement. The indentations were then evaluated under an optical microscope, and the average length of their two diagonal lengths was used to determine the hardness. The average microhardness value of the indentations' results was considered representative of each depth in each specimen.

The nature of assay [2]: pH cycling model of artificial dentin caries. The settings on record: in words. Further details: species or system human. As for the experimental part:
as §2

A short description of assay [3]: Diametral tensile strength (DTS) of fortified dentin specimens after pH cycling. Further details: species or system human. Conditions: for Diametral tensile strength: 5 min irrigation, 3-day pH cycling, mean ± SD; for DTS compared with the control group: in words; for DTS: pilot study, mean and standard deviation. As for the experimental part:
as §1, §2
The cylindrical specimens were positioned on a customized loading fixture to ensure that the 1.00 mm diameter loading pin aligned with the center axis of the dentin cylinder. Additionally, flat platens were used at both ends of the specimens to further ensure alignment with the testing surface. The specimens were then loaded horizontally into a universal testing machine, receiving a uniaxial load perpendicular to their long axes and parallel to the dentinal tubule orientation. A 1.00 mm diameter stainless steel plunger was used to apply downward pressure on the dentin surface at 1.0 mm/min crosshead speed. The maximal load applied to the plug at the time of dislodgement was recorded in Newtons, and the DTS was calculated using the formula
where F is the force in Newtons, D is the diameter of the cylinder, and h is the height in mm.

The nature of assay [4]: Solubility evaluation: weight loss of fortified dentin in butyric acid. Further details: species or system human. The settings on record: for Solubility (weight loss): 0.1 M butyric acid pH 4.4, 24 h, 37 C, mean ± SD; for weight loss: pilot study, mean and standard deviation. On the procedure:
as §1, with “solution. […]” for “solution.”
Fortified dentin specimens were completely immersed in 30 ml of 0.1 M butyric acid buffered with synthetic tissue fluid (pH 4.4) for 24 hours at 37 degrees C. and 100% relative humidity. After incubation, the specimens were removed from the acidic solutions, rinsed with distilled water to remove any residual acid, and dried. The weight of the dentin slices was measured by a digital microbalance before and after immersion into butyric acid, and the difference in weight provided information on dentin solubility.

The nature of assay [5]: Compressive strength of fortified dentin specimens after pH cycling. Further details: species or system human. Conditions: for Compressive strength: 5 min irrigation, 3-day pH cycling, mean ± SD. As for the experimental part:
as §1, §2
The procedure for compressive strength testing was the same as for DTS testing except for the orientation of the specimens in the universal testing machine. The loads were applied uniaxially, parallel to the long axes of the specimens, and perpendicular to the dentinal tubule orientation until the specimens fractured. To calculate the compressive strength (MPa), the failure load (N) was divided by the area of the specimen in contact with the load

Assay [6] can be described thus: SEM-EDS color dot map, intensity of the metal in dentin. Further details: species or system human. Conditions: for Unit of Intensity: EDS dot map at 1000x, 0 to 255 scale, mean ± SD; for color intensity: pilot study, mean and standard deviation. As for the experimental part: as §1
Three specimens from each group were examined by SEM-EDS mode to observe the precipitation of metallic components on the dentin surface. All specimens were sectioned at a depth of 500 μm (exposure surface to fortifying solutions) using a diamond-coated disk under water cooling. The specimens' surfaces were then polished and sputter-coated with 10 nm gold and observed under an SEM. An EDS color dot map analysis was performed for each specimen at 1000× to evaluate the distribution of trace elements. The intensity of Mg, Zn, Mn, Sr, and Ba was measured using ImageJ software. The color maps were converted to binary, and their mean color intensity (0 to 255 scale) was recorded as a unit of intensity (UI).

The nature of assay [7]: Residual stress of treated dentin. Conditions: 5 min treatment with AA2P salts. On the procedure: After establishing that inorganic trace minerals (IoTM) were dysregulated in dentin, Applicant aimed to examine if extrinsic supplementation could enhance dentinal mechanical properties. Specimens were treated with L-ascorbic acid 2-phosphate (AA2P) salts of IoTM as a solute carrier for the elements for 5 minutes. The following findings were observed, as described below.
Cationic substitution may lead to changes in residual stress. Stress magnitude and distribution by can be measured using XRD (Mn X-ray source, 1 mm aperture) as well as by slitting crack compliance, a destructive mechanical strain release technique, using whole dentin disk samples. In the slitting method, a rectangular sample with a strain gauge applied to the back side will be wired to the electrical discharge machine to cut through a sample to measure strain relief. Finite element analysis can be used to create the stress profile through the depth of a sample. However, the technique's accuracy is limited at the surface. In contrast, XRD is best for surface measurements with very high accuracy. Data can be acquired using a sine-squared psi method to indicate residual stress, modulus, and Poisson ratio. […] Pit depths can be measured using a drop gauge. […] The residual stress in the surface and sub-surface of dentin apatite (as deep as […]) can be determined.

Setting [8] is: 100 and 500 μm depths combined, N=20.

Entries after “also recorded” stand apart in the source; their conditions may differ. Marks after values point to notes of the source that are not given here.

On to `O=C1O[C@H]([C@@H](O)CO)C([O-])=C1OP(=O)([O-])[O-].O=C1O[C@H]([C@@H](O)CO)C([O-])=C1OP(=O)([O-])[O-].[Ba+2].[Ba+2].[Ba+2]` [Ba], for which the “Microhardness, Mean” value in assay [1] (100 μM depth, N=10) came out at 45.00 kgf/mm^2. Moreover, the “Microhardness, Mean” value in assay [1] (500 μM depth, N=10) was 60.00 kgf/mm^2. Moreover, the “Microhardness, Mean” value in assay [1] (setting [8]) worked out at 52.50 kgf/mm^2. Also, in assay [2], the “protection against artificial caries lesions” value was “protected the dentin lesions”. In assay [3], the Diametral tensile strength was 61.56 ± 3.55 ^b Mpa, the “DTS compared with the control group” value was “significantly higher DTS than the control group” and the DTS came to 61.96±4.47 Mpa. In addition, in assay [4], the “Solubility (weight loss)” value is recorded as 19.03 ± 2.99 ^a % and the weight loss was found to be 18.96±3.44%. For the same compound, the Compressive strength in assay [5] is listed as 157.96 ± 18.22 ^bc Mpa. In addition, the “Unit of Intensity” value in assay [6] (500 μm depth) was 5.57 ± 0.95 ^b Ui. Besides, the color intensity in assay [6] is given as 5.55±1.34.
For the compound `O=C1O[C@H]([C@@H](O)CO)C([O-])=C1OP(=O)([O-])[O-].O=C1O[C@H]([C@@H](O)CO)C([O-])=C1OP(=O)([O-])[O-].[Mg+2].[Mg+2].[Mg+2]` [Mg], in assay [1] (100 μM depth, N=10), the “Microhardness, Mean” value is on record as 38.10 kgf/mm^2. Further, the “Microhardness, Mean” value in assay [1] (500 μM depth, N=10) is 57.20 kgf/mm^2. The “Microhardness, Mean” value in assay [1] (setting [8]) is 47.65 kgf/mm^2. In addition, in assay [3], the Diametral tensile strength was 56.93 ± 11.93 ^b Mpa, the “DTS compared with the control group” value is listed as “significantly higher DTS than the control group” and the DTS was found to be 57.60±15.21 Mpa. In assay [4], the “Solubility (weight loss)” value is recorded as 12.73 ± 4.92 ^a % and the weight loss was 12.61±5.67%. Also, the Compressive strength in assay [5] is 148.97 ± 6.89 ^b Mpa. The “Unit of Intensity” value in assay [6] (500 μm depth) is 9.76 ± 1.52 ^a Ui. Also, the “intensity / penetration, rank among all the groups” value in assay [6] (in words, 500 μm depth) is on record as “highest intensity; also recorded: highest penetration”. Besides, the color intensity in assay [6] is reported as 9.9±2.12.
In the case of `O=C1O[C@H]([C@@H](O)CO)C([O-])=C1OP(=O)([O-])[O-].O=C1O[C@H]([C@@H](O)CO)C([O-])=C1OP(=O)([O-])[O-].[Mn+2].[Mn+2].[Mn+2]` [Mn], the “Microhardness, Mean” value in assay [1] (100 μM depth, N=10) turned out to be 40.60 kgf/mm^2. The “Microhardness, Mean” value in assay [1] (500 μM depth, N=10) was 58.80 kgf/mm^2. Further, the “Microhardness, Mean” value in assay [1] (setting [8]) is 49.70 kgf/mm^2. For the same compound, in assay [3], the Diametral tensile strength is given as 56.07 ± 9.39 ^b Mpa, the “DTS compared with the control group” value is given as “significantly higher DTS than the control group” and the DTS is 55.80±11.56 Mpa. In assay [4], the “Solubility (weight loss)” value is reported as 16.69 ± 3.97 ^a % and the weight loss worked out at 16.48±4.55%. Also, in assay [5], the Compressive strength is reported as 148.03 ± 9.82 ^b Mpa. The “Unit of Intensity” value in assay [6] (500 μm depth) is 6.57 ± 0.95 ^b Ui. In addition, the color intensity in assay [6] came to 6.1±0.71.
As to `O=C1O[C@H]([C@@H](O)CO)C([O-])=C1OP(=O)([O-])[O-].O=C1O[C@H]([C@@H](O)CO)C([O-])=C1OP(=O)([O-])[O-].[Sr+2].[Sr+2].[Sr+2]` [Sr], the “Microhardness, Mean” value in assay [1] (100 μM depth, N=10) is 47.60 kgf/mm^2. Also, in assay [1] (500 μM depth, N=10), the “Microhardness, Mean” value stood at 59.10 kgf/mm^2. The “Microhardness, Mean” value in assay [1] (setting [8]) was determined as 53.35 kgf/mm^2. Further, in assay [1] (100 μm depth), the “microhardness, rank among all the groups” value was “highest”. Also, the “microhardness, rank among all the groups” value in assay [1] (depths combined) was “highest”. Besides, in assay [3], the Diametral tensile strength was 60.01 ± 2.70 ^b Mpa, the “DTS compared with the control group” value was “significantly higher DTS than the control group” and the DTS stood at 59.99±1.91 Mpa. Moreover, in assay [4], the “Solubility (weight loss)” value was 18.53 ± 3.74 ^a % and the weight loss is 18.16±4.21%. The Compressive strength in assay [5] is 174.01 ± 11.09 ^c Mpa. Moreover, the “compressive strength, rank among all the groups” value in assay [5] (in words) is recorded as “highest”. In assay [7], the “kind of residual stress generated” value is on record as “compressive residual stress”. Besides, the “Unit of Intensity” value in assay [6] (500 μm depth) is listed as 6.03 ± 0.67 ^b Ui. The compound further had a color intensity in assay [6] of 6.2±0.85.
On to `O=C1O[C@H]([C@@H](O)CO)C([O-])=C1OP(=O)([O-])[O-].O=C1O[C@H]([C@@H](O)CO)C([O-])=C1OP(=O)([O-])[O-].[Zn+2].[Zn+2].[Zn+2]` [Zn], for which, in assay [1] (100 μM depth, N=10), the “Microhardness, Mean” value turned out to be 40.30 kgf/mm^2. Moreover, the “Microhardness, Mean” value in assay [1] (500 μM depth, N=10) was determined as 56.30 kgf/mm^2. Moreover, the “Microhardness, Mean” value in assay [1] (setting [8]) stood at 48.30 kgf/mm^2. In assay [2], the “protection against artificial caries lesions” value is recorded as “protected the dentin lesions”. In assay [3], the Diametral tensile strength is listed as 54.97 ± 10.12 ^b Mpa, the “DTS compared with the control group” value is on record as “significantly higher DTS than the control group” and the DTS is reported as 53.98±9.94 Mpa. Further, in assay [4], the “Solubility (weight loss)” value was 12.88 ± 3.39 ^a % and the weight loss was determined as 12.55±3.82%. Also, in assay [5], the Compressive strength is 152.40 ± 15.07 ^b Mpa. Further, the “kind of residual stress generated” value in assay [7] was “tensile residual stress”. Besides, the “Unit of Intensity” value in assay [6] (500 μm depth) is 7.1 ± 1.04 ^b Ui. Moreover, in assay [6], the color intensity came out at 7.35±1.34.

For the origin of these results see US20250049680A1, “COMPOSITIONS AND METHODS FOR TREATING DENTIN CARIES” (Rutgers, The State University of New Jersey, priority 2023, published 2025).
